The text below walks through data of patent publication US20210315810A1, “COMPOSITION CONTAINING A MUCOLYTIC AGENT FOR THE TREATMENT OF MUCUS HYPERSECRETION AND A DEVICE FOR THE DOSING THEREOF” (SOFAR S.P.A., priority 2018, published 2021).

Structures are written as SMILES.

The nature of this assay: Viscosity of cystic fibrosis mucus before and after incubation with Compositions 5-12 (Experimental Part II). On the set-up: species or system human. Particulars: mucus from patients, in vitro.

As for `CC(=O)N[C@@H](CS)C(=O)O` [N-acetylcysteine, 2R-acetamido-3-sulfanylpropanoic acid], the “Effect on viscosity of bronchial mucus (in words)” value was “effective at reducing the viscosity of bronchial mucus”.
